Four compounds from patent US4068074A, “Cephalosporin derivatives having at the 3-position of the cephem ring a heterocyclic thiomethyl group with a carboxy or sulfo group and at the 7-position of the cephem ring an α-heterocylic acylaminophenyl-acetamide group” (priority 1974, dated 1978) can be followed below.

Holding throughout (assay type): cell-based
One test has as its system Proteus vulgaris 0X 19US. In words: MIC against bacteria (Table I), strain (2). Conditions: 0X19US. From the text:
(§1) Now, for illustrating the excellent pharmacological effects of the compounds of this invention, the values of MIC (γ/ml.) of the compounds against various bacteria are shown in Table 1, in which the compounds of this invention used are shown by example numbers.
(2) Proteus vulgaris 0X 19US

For test [1], the system named is Proteus mirabilis IXM OM-19. Nature of the test: MIC against bacteria (Table I), strain (3). The note with it: IXMOM19; (3) Proteus mirabilis IXM OM-19; read-out: MIC.
Source text: as §1
(3) Proteus mirabilis IXM OM-19

Test [2] concerns Psuedomonas ovalis IMA 1002. In words: MIC against bacteria (Table I), strain (6).
Source text: as §1
(6) Psuedomonas ovalis IMA 1002

The subject of test [3] is Escherichia coli kauffmann 0-1. Nature of the test: MIC against bacteria (Table I), strain (7).
Source text: as §1
(7) Escherichia coli kauffmann 0-1

Test [4] deals with Klebsiella pneumoniae ATCC 10031. In words: MIC against bacteria (Table I), strain (8). The note with it: ATCC10031.
Source text: as §1
(8) Klebsiella pneumoniae ATCC 10031

The test system of another test is Salmonella typhi H901 W. Nature of the test: MIC against bacteria (Table I), strain (9). The note with it: Salmonella enterica, TYPHI.
Source text: as §1
(9) Salmonella typhi H901 W

The next test has as its system Salmonella enteritidis. In words: MIC against bacteria (Table I), strain (10). The note with it: Salmonella enterica.
Source text: as §1
(10) Salmonella enteritidis

Test [5] has as its system Shigella flexneri 2a 1675. In words: MIC against bacteria (Table I), strain (11). The note with it: 2A1675; (11) Shigella flexneri 2a 1675; read-out: MIC.
Source text: as §1

The next test concerns Shigella sonnei II 37148. In words: MIC against bacteria (Table I), strain (12). Conditions: II37148; (12) Shigella sonnei II 37148; read-out: MIC.
Source text: as §1

For test [6], the system named is Bacillus megatherium 10778. In words: MIC against bacteria (Table I), strain (13).
Source text: as §1

Test [7] has as its system Bacillus subtilis ATCC 6633. Nature of the test: MIC against bacteria (Table I), strain (14). Conditions: ATCC6633.
Source text: as §1
(14) Bacillus subtilis ATCC 6633

Test [8] deals with Micrococcus flavus ATCC 10240. Nature of the test: MIC against bacteria (Table I), strain (15). Conditions: ATCC10240; (15) Micrococcus flavus ATCC 10240; read-out: MIC.
Source text: as §1
(15) Micrococcus flavus ATCC 10240

Test [9] deals with Staphylococcus aureus 209P. Nature of the test: MIC against bacteria (Table I), strain (16). Conditions: Staphylococcus aureus, 209P.
Source text: as §1
(16) Staphylococcus aureus 209P

In test [10] the test system is Staphylococcus Shimanishi. Nature of the test: MIC against bacteria (Table I), strain (17). Conditions: (17) Staphylococcus Shimanishi; read-out: MIC.
Source text: as §1
(17) Staphylococcus Shimanishi

In another test the test system is Staphylococcus Onuma. Nature of the test: MIC against bacteria (Table I), strain (18). The note with it: (18) Staphylococcus Onuma; read-out: MIC.
Source text: as §1
(18) Staphylococcus Onuma

The test system of test [11] is Pseudomonas aeruginosa 99 (Gentamycin resistant). Nature of the test: MIC against bacteria (Table I), strain (5).
Source text: as §1
(5) Pseudomonas aeruginosa 99 (Gentamycin resistant)

[12] abbreviates: (6) Psuedomonas ovalis IMA 1002, read-out: MIC.
The mark [13] stands for this setting: (7) Escherichia coli kauffmann 0-1, read-out: MIC.
Where [14] appears, read: (10) Salmonella enteritidis, read-out: MIC.
The mark [15] stands for this setting: (13) Bacillus megatherium 10778, read-out: MIC.
Where [16] appears, read: (14) Bacillus subtilis ATCC 6633, read-out: MIC.
[17] abbreviates: (2) Proteus vulgaris 0X 19US, read-out: MIC.
Where [18] appears, read: (5) Pseudomonas aeruginosa 99 (Gentamycin resistant), read-out: MIC.
The mark [19] stands for this setting: (8) Klebsiella pneumoniae ATCC 10031, read-out: MIC.

Structures are written as SMILES. Values after ≈ are worked out from the molar mass of the structure shown. Where two headings read alike, the source gives them in different places.

One may read the MIC as the smallest concentration in the dilution series that meets the test's criterion for growth inhibition. Consider `Nc1nc(SCC(=O)O)cc(SCC2=C(C(=O)O)N3C(=O)[C@@H](NC(=O)[C@H](NC(=O)c4cnccc4O)c4ccccc4)[C@H]3SC2)n1` [Example 19, 7-[D-α-(4-hydroxynicotinoylamido)-α-phenylacetamido]-3-(2-amino-4-carboxymethylthiopyrimidin-6-yl)thiomethyl-Δ^3-cephem-4-carboxylic acid], for which the MIC in the test with Proteus vulgaris 0X 19US (Proteus vulgaris) stood at 6.25 µg/mL (≈ 9.14 µM); in test [1], 0.39 µg/mL (≈ 0.57 µM); in test [2] (setting [12]), 50 µg/mL (≈ 73.1 µM); in [3] (setting [13]) it was 12.5 µg/mL (≈ 18.3 µM); in test [4] (Klebsiella pneumoniae), 25 µg/mL (≈ 36.6 µM); against Salmonella typhi H901 W, 3.13 µg/mL (≈ 4.58 µM). In addition, the MIC in the test with Salmonella enteritidis (setting [14]) worked out at 1.56 µg/mL (≈ 2.28 µM); in [5], 6.25 µg/mL (≈ 9.14 µM); in the test with Shigella sonnei II 37148, 25 µg/mL (≈ 36.6 µM); in [6] (setting [15]) it was 0.78 µg/mL (≈ 1.14 µM); in [7] (setting [16]), 0.78 µg/mL (≈ 1.14 µM); in test [8], 12.5 µg/mL (≈ 18.3 µM). Besides, the MIC is 3.13 µg/mL (≈ 4.58 µM) in test [9], 12.5 µg/mL (≈ 18.3 µM) in test [10] and 12.5 µg/mL (≈ 18.3 µM) with Staphylococcus Onuma.

Consider `O=C(O)CCCc1nnc(SCC2=C(C(=O)O)N3C(=O)[C@@H](NC(=O)[C@H](NC(=O)c4cnccc4O)c4ccccc4)[C@H]3SC2)s1` [Example 35, 7-[D-α-(4-hydroxynicotinoylamido)-α-phenylacetamido]-3-[5-(3-carboxypropyl)-1,3,4-thiadiazol-2yl]-thiomethyl-Δ^3 cephem-4-carboxylic acid], for which the MIC is 50 µg/mL (≈ 74.5 µM) in the test with Proteus vulgaris 0X 19US (setting [17]); 0.78 µg/mL (≈ 1.16 µM) in [1]; 6.25 µg/mL (≈ 9.32 µM) in test [11] (Pseudomonas aeruginosa); 6.25 µg/mL (≈ 9.32 µM) in [2]; 3.13 µg/mL (≈ 4.67 µM) in test [3] (setting [13]); 6.25 µg/mL (≈ 9.32 µM) in test [4] (Klebsiella pneumoniae). For the same compound, the MIC in the test on Salmonella typhi H901 W was determined as 1.56 µg/mL (≈ 2.33 µM); in the test on Salmonella enteritidis (setting [14]), 0.78 µg/mL (≈ 1.16 µM); in test [5], 1.56 µg/mL (≈ 2.33 µM); with Shigella sonnei II 37148, 6.25 µg/mL (≈ 9.32 µM); in test [6] (setting [15]), 0.78 µg/mL (≈ 1.16 µM); in test [7] (setting [16]), 0.78 µg/mL (≈ 1.16 µM). Further, the figures for the MIC (in test [8]; in test [9]; in the test on Staphylococcus Onuma) were 3.13 µg/mL (≈ 4.67 µM), 1.56 µg/mL (≈ 2.33 µM) and 12.5 µg/mL (≈ 18.6 µM), respectively.

`Cc1cc(O)c(C(=O)N[C@@H](C(=O)N[C@@H]2C(=O)N3C(C(=O)O)=C(CSc4nnc(CCCC(=O)O)s4)CS[C@H]23)c2ccccc2)cn1` [Example 36, 7-[D-α-(4-hydroxy-6-methylnicotinoylamido)-α-phenylacetamido]-3-[5-(3-carboxypropyl)-1,3,4-thiadiazol-2-yl]thiomethyl-Δ^3-cephem-4-carboxylic acid]: the MIC in the test with Proteus vulgaris 0X 19US (setting [17]) was determined as 100 µg/mL (≈ 146 µM); in test [1], 0.39 µg/mL (≈ 0.57 µM); in test [11] (setting [18]) it was 6.25 µg/mL (≈ 9.13 µM); in test [2] (setting [12]), 25 µg/mL (≈ 36.5 µM); in test [3] (Escherichia coli), 1.56 µg/mL (≈ 2.28 µM); in [4] (setting [19]) it was 6.25 µg/mL (≈ 9.13 µM). In addition, the MIC was 1.56 µg/mL (≈ 2.28 µM) with Salmonella typhi H901 W; 1.56 µg/mL (≈ 2.28 µM) against Salmonella enteritidis (ENTERITIDIS); 0.78 µg/mL (≈ 1.14 µM) in [5]; 3.13 µg/mL (≈ 4.57 µM) in the test on Shigella sonnei II 37148; 0.78 µg/mL (≈ 1.14 µM) in test [6] (Bacillus, 10778); 1.56 µg/mL (≈ 2.28 µM) in test [7] (Bacillus subtilis). Moreover, the MIC in [8] stood at 6.25 µg/mL (≈ 9.13 µM); in [9] it was 1.56 µg/mL (≈ 2.28 µM); with Staphylococcus Onuma, 12.5 µg/mL (≈ 18.3 µM).

`Cc1cc(O)c(C(=O)N[C@@H](C(=O)N[C@@H]2C(=O)N3C(C(=O)O)=C(CSc4nnc(CC(=O)O)s4)CS[C@H]23)c2ccccc2)cn1` [Example 38, 7-[D-α-(4-hydroxy-6-methylnicotinoylamido)-α-phenylacetamido]-3-(5-carboxymethyl-1,3,4-thiadiazol-2-yl)-thiomethyl-Δ^3-cephem-4-carboxylic acid]: the MIC in test [1] was found to be 0.78 µg/mL (≈ 1.19 µM); in test [11] (setting [18]), 12.5 µg/mL (≈ 19 µM); in test [2] (setting [12]), 50 µg/mL (≈ 76.1 µM); in [3] (Escherichia coli), 3.13 µg/mL (≈ 4.77 µM); in test [4] (setting [19]), 12.5 µg/mL (≈ 19 µM); in the test with Salmonella typhi H901 W, 1.56 µg/mL (≈ 2.38 µM). Further, the MIC in the test with Salmonella enteritidis (ENTERITIDIS) worked out at 1.56 µg/mL (≈ 2.38 µM); in test [5], 1.56 µg/mL (≈ 2.38 µM); with Shigella sonnei II 37148, 3.13 µg/mL (≈ 4.77 µM); in [6] (Bacillus, 10778), 1.56 µg/mL (≈ 2.38 µM); in test [7] (Bacillus subtilis), 1.56 µg/mL (≈ 2.38 µM); in test [8] it was 12.5 µg/mL (≈ 19 µM). For the same compound, the MIC in [9] was 3.13 µg/mL (≈ 4.77 µM); in the test on Staphylococcus Onuma, 12.5 µg/mL (≈ 19 µM).
